Experimental data as given in PMC7567103 (Nature Communications, 2020).

Columns and labels:
[1] = molecular target: T1, GHRHR(23-405)-15AA-LgBiT-2MBP (Homo sapiens, UniProt Q02643); assay: whole cell binding, competitive inhibition of 125I-GHRH (Supplementary Fig. 2c); conditions: competition with 80 pM 125I-GHRH; whole HEK 293T cells, RT 3 h; mean ± SEM, n = 7-8
T1 construct: 24 h after transfection with GHRHR(23-423), GHRHR(23-405), GHRHR(23-405)-LgBiT-2MBP, or HA-Flag-GHRHR (WT and mutants); HA signal peptide (replaces native signal M1-G22) (N); expressed in transfected cells; host or cells: HEK 293 T
T1 sequence (Q02643 23-405): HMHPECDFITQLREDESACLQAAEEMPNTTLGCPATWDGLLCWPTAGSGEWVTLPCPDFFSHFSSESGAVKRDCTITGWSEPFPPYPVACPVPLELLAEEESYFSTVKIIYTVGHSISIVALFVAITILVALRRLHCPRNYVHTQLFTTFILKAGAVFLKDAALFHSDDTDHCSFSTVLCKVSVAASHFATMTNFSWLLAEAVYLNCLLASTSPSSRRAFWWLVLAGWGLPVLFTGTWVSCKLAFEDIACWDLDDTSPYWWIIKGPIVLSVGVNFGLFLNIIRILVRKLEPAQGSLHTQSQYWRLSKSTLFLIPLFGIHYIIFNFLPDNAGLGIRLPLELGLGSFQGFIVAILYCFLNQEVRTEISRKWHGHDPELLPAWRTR
Method: (§1) This assay was conducted in 96-well Iso-plates (PerkinElmer) coated with poly-D-lysine hydrobromide (Sigma-Aldrich). Twenty-four hour after transfection with GHRHR(23-423) or GHRHR(23-405)-LgBiT-2MBP, HEK 293 T cells were washed twice, and incubated with blocking buffer (DMEM medium supplemented with 33 mM HEPES, and 0.1% (w/v) BSA, pH 7.4) for 2 h at 37 °C. Then, radiolabeled ^125I-GHRH (80 pM, Phoenix Biotech) and seven decreasing concentrations of unlabeled peptide (10 μM, […]) were added and competitively reacted with the cells in binding buffer (PBS supplemented with 10% (w/v) BSA, pH 7.4) at RT for 3 h. Cells were washed with ice-cold PBS and lysed by 50 μL lysis buffer (PBS supplemented with 20 mM Tris-HCl and 1% (v/v) Triton X-100, pH 7.4). Finally, 150 μL of scintillation cocktail (OptiPhase SuperMix, PerkinElmer) was employed and radioactivity (counts per minute) read in a scintillation counter (MicroBeta[2] plate counter, PerkinElmer).
(§2) 93 of transfection. Data are normalized by the WT receptor and fitted with a three-
(§3) 94 parameter logistic equation. All values are means ± S.E.M. of at least three […]
(§4) Binding affinity is quantified by
(§5) 97 reduction of radioactivity (counts per minute, CPM) and normalized to the […]
(§6) 231 Binding data were analyzed using a three-parameter logistic equation to […]
(§7) 234 determine statistical difference. *P<0.01; ND, not determined.

GHRHR(23-423) (WT) = molecular target: T2, GHRHR(23-423) (WT) (Homo sapiens, UniProt Q02643); assay: as above; conditions: competition with 80 pM 125I-GHRH; whole HEK 293T cells, RT 3 h; mean ± SEM, n = 7-8
T2 construct: 24 h after transfection with GHRHR(23-423), GHRHR(23-405), GHRHR(23-405)-LgBiT-2MBP, or HA-Flag-GHRHR (WT and mutants); HA signal peptide (replaces native signal M1-G22) (N); expressed in transfected cells; host or cells: HEK 293 T
T2 sequence (Q02643 23-423): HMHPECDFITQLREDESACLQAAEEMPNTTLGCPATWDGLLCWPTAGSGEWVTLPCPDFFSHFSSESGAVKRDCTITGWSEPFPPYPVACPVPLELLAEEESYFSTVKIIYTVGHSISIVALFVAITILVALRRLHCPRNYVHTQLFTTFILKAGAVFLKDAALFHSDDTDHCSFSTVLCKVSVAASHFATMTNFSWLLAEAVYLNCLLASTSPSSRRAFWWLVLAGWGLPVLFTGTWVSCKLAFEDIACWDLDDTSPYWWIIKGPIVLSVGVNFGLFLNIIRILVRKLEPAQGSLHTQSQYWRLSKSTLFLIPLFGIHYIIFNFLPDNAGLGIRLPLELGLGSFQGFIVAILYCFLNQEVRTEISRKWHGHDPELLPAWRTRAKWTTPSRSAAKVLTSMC
Method: as §1, §2, §3, §4, §5, §6, §7

CC[C@H](C)[C@H](NC(=O)[C@H](C)NC(=O)[C@H](CC(=O)O)NC(=O)[C@H](C)NC(=O)[C@@H](N)Cc1ccc(O)cc1)C(=O)N[C@@H](Cc1ccccc1)C(=O)N[C@H](C(=O)N[C@@H](CC(N)=O)C(=O)N[C@@H](CO)C(=O)N[C@@H](Cc1ccc(O)cc1)C(=O)N[C@@H](CCCNC(=N)N)C(=O)N[C@@H](CCCCN)C(=O)N[C@H](C(=O)N[C@@H](CC(C)C)C(=O)NCC(=O)N[C@@H](CCC(N)=O)C(=O)N[C@@H](CC(C)C)C(=O)N[C@@H](CO)C(=O)N[C@@H](C)C(=O)N[C@@H](CCCNC(=N)N)C(=O)N[C@@H](CCCCN)C(=O)N[C@@H](CC(C)C)C(=O)N[C@@H](CC(C)C)C(=O)N[C@@H](CCC(N)=O)C(=O)N[C@@H](CC(=O)O)C(=O)N[C@H](C(=O)N[C@@H](CCSC)C(=O)N[C@@H](CO)C(=O)N[C@@H](CCCNC(=N)N)C(=O)N[C@@H](CCC(N)=O)C(=O)N[C@@H](CCC(N)=O)C(=O)NCC(=O)N[C@@H](CCC(=O)O)C(=O)N[C@@H](CO)C(=O)N[C@@H](CC(N)=O)C(=O)N[C@@H](CCC(N)=O)C(=O)N[C@@H](CCC(=O)O)C(=O)N[C@@H](CCCNC(=N)N)C(=O)NCC(=O)N[C@@H](C)C(=O)N[C@@H](CCCNC(=N)N)C(=O)N[C@@H](C)C(=O)N[C@@H](CCCNC(=N)N)C(=O)N[C@@H](CC(C)C)C(N)=O)[C@@H](C)CC)C(C)C)[C@@H](C)O [GHRH, Growth hormone-releasing hormone]
IC50 [1]: 0.879 nM
IC50 (GHRHR(23-423) (WT)): 2.75 nM
